Test results: patent US10233188B2, “CDK2/4/6 inhibitors” (priority 2016, dated 2019)

What was measured:
CDK2/Cyclin E1 = CDK2/Cyclin E1 (Homo sapiens (Human), UniProt P24941); assay: biochemical; settings: CDK2_Ki (nM), phosphorylated CDK2/Cyclin E1, 150 μM ATP, Morrison tight-binding fit
Protocol: The assay was initiated with the addition of ATP, following a fifteen minutes pre-incubation of enzyme and inhibitor at room temperature in the reaction mixture. The reaction was stopped after 45 minutes at room temperature by the addition of 50 μL of 80 mM EDTA, pH 7.5.

CDK6/Cyclin D1 = CDK6/Cyclin D1 (Homo sapiens (Human), UniProt Q00534); assay: biochemical; settings: CDK6_Ki (nM), non-phosphorylated CDK6/Cyclin D1, 2 mM ATP, Morrison fit
CDK6/Cyclin D1, sequence (Q00534 whole entry): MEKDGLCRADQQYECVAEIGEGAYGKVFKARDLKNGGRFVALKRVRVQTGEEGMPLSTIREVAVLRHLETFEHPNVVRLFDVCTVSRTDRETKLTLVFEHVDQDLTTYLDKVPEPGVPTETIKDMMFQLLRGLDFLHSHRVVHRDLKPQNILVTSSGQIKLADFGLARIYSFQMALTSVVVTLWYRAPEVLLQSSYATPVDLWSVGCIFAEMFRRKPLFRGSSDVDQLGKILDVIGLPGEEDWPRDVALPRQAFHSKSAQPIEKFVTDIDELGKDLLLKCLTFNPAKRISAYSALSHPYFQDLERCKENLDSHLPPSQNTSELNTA
CDK6/Cyclin D1, sequence (P24385 whole entry partner): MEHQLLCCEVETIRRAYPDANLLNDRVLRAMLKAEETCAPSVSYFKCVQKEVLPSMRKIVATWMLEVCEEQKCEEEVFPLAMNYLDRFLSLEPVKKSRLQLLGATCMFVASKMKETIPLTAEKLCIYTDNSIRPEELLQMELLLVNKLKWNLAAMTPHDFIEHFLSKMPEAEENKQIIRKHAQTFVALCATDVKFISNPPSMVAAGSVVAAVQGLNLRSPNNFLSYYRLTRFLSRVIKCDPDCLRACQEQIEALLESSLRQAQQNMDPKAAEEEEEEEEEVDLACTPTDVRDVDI

| Ki (CDK2/Cyclin E1) [nM] | Ki (CDK6/Cyclin D1) [nM] | Compound |
| --- | --- | --- |
| 0.25 | 1.63 | C[C@@]1(O)CCC[C@H]1n1c(=O)ccc2cnc(NC3CCN(S(=O)(=O)c4nccs4)CC3)nc21 (single isomer, unassigned) [Example 78, (−)-8-[(1R*,2R*)-2-hydroxy-2-methylcyclopentyl]-2-{[1-(1,3-thiazol-2-ylsulfonyl)piperidin-4-yl]amino}pyrido[2,3-d]pyrimidin-7(8H)-one] |
| 1.46 | 11.8 | C[C@]1(O)CCC[C@@H]1n1c(=O)ccc2cnc(NC3CCN(S(N)(=O)=O)CC3)nc21 (single isomer, unassigned) [Example 184, (+)-4-({8-[(1R*,2R*)-2-hydroxy-2-methylcyclopentyl]-7-oxo-7,8-dihydropyrido[2,3-d]pyrimidin-2-yl}amino)piperidine-1-sulfonamide] |
| 1.51 | 1.1 | CNS(=O)(=O)N1CCC(Nc2ncc3cc(CCO)c(=O)n(C4CCCC4)c3n2)CC1 [Example 146, 4-{[8-cyclopentyl-6-(2-hydroxyethyl)-7-oxo-7,8-dihydropyrido[2,3-d]pyrimidin-2-yl]amino}-N-methylpiperidine-1-sulfonamide] |
| 0.22 | 0.23 | Cc1cc2cnc(NC3CCN(S(N)(=O)=O)CC3)nc2n(C2CCCC2)c1=O [Example 25, 4-[(8-cyclopentyl-6-methyl-7-oxo-7,8-dihydropyrido[2,3-d]pyrimidin-2-yl)amino]piperidine-1-sulfonamide] |
| 0.1 | 1.21 | Cn1cc(S(=O)(=O)N2CCC(Nc3ncc4ccc(=O)n([C@@H]5CCC[C@@]5(C)O)c4n3)CC2)cn1 (single isomer, unassigned) [Example 82, (−)-8-[(1R*,2R*)-2-hydroxy-2-methylcyclopentyl]-2-({1-[(1-methyl-1H-pyrazol-4-yl)sulfonyl]piperidin-4-yl}amino)pyrido[2,3-d]pyrimidin-7(8H)-one] |
| 310 | 6.58 | Cc1cc2cnc(NC3CCN(S(C)(=O)=O)CC3)nc2n(C2CCCCC(O)C2)c1=O (single isomer, unassigned; isomer d) [Example 226, 8-(3-hydroxycycloheptyl)-6-methyl-2-{[1-(methylsulfonyl)piperidin-4-yl]amino}pyrido[2,3-d]pyrimidin-7(8H)-one-Isomer D] |
| 0.2 | 1.01 | C[C@@]1(O)CCC[C@H]1n1c(=O)ccc2cnc(NC3CCN(S(=O)(=O)C4CC4)CC3)nc21 (single isomer, unassigned) [Example 74, (−)-2-{[1-(cyclopropylsulfonyl)piperidin-4-yl]amino}-8-[(1R*,2R*)-2-hydroxy-2-methylcyclopentyl]pyrido[2,3-d]pyrimidin-7(8H)-one] |
| 0.08 | 0.92 | Cn1cnc(S(=O)(=O)N2CCC(Nc3ncc4ccc(=O)n([C@@H]5CCC[C@@]5(C)O)c4n3)CC2)c1 (single isomer, unassigned) [Example 84, (−)-8-[(1R*,2R*)-2-hydroxy-2-methylcyclopentyl]-2-({1-[(1-methyl-1H-imidazol-4-yl)sulfonyl]piperidin-4-yl}amino)pyrido[2,3-d]pyrimidin-7(8H)-one] |
| 2.47 | 11.8 | Cc1cc2cnc(NC3CCN(S(=O)(=O)NC4CCOCC4)CC3)nc2n([C@H]2CCC[C@]2(C)O)c1=O (single isomer, unassigned) [Example 97, (+)-4-({8-[(1R*,2R*)-2-hydroxy-2-methylcyclopentyl]-6-methyl-7-oxo-7,8-dihydropyrido[2,3-d]pyrimidin-2-yl}amino)-N-(tetrahydro-2H-pyran-4-yl)piperidine-1-sulfonamide] |

More lines, now with the values behind:

| Compound | Ki (CDK2/Cyclin E1) [nM] | Ki (CDK6/Cyclin D1) [nM] |
| --- | --- | --- |
| C[C@H]1CCC[C@H]1n1c(=O)c(CCO)cc2cnc(NC3CCN(S(C)(=O)=O)CC3)nc21 [Example 40, 6-(2-hydroxyethyl)-8-[(1R,2S)-2-methylcyclopentyl]-2-{[1-(methylsulfonyl)piperidin-4-yl]amino}pyrido[2,3-d]pyrimidin-7(8H)-one] | 0.08 | 0.14 |
| CS(=O)(=O)N1CCC(Nc2ncc3cc(N)c(=O)n(C4CCCC4)c3n2)CC1 [Example 28, 6-amino-8-cyclopentyl-2-{[1-(methylsulfonyl)piperidin-4-yl]amino}pyrido[2,3-d]pyrimidin-7(8H)-one] | 1.88 | 1.2 |
| NS(=O)(=O)N1CCC(Nc2ncc3ccc(=O)n(C4CCCC4)c3n2)CC1 [Example 13, 4-[(8-cyclopentyl-7-oxo-7,8-dihydropyrido[2,3-d]pyrimidin-2-yl)amino]piperidine-1-sulfonamide] | 0.19 | 0.88 |
| CNS(=O)(=O)N1CCC(Nc2ncc3ccc(=O)n([C@@H]4C[C@@H](O)CC[C@H]4F)c3n2)CC1 (single isomer, unassigned) [Example 220, (−)-4-({8-[(1S*,2S*,5R*)-2-fluoro-5-hydroxycyclohexyl]-7-oxo-7,8-dihydropyrido[2,3-d]pyrimidin-2-yl}amino)-N-methylpiperidine-1-sulfonamide] | 7.46 | 18.3 |
| CS(=O)(=O)N1CC[C@H](Nc2ncc3cc(CCO)c(=O)n(C4CCCC4)c3n2)[C@@H](F)C1 (single isomer, unassigned) [Example 156, (−)-8-cyclopentyl-2-{[(3S*,4S*)-3-fluoro-1-(methylsulfonyl)piperidin-4-yl]amino}-6-(2-hydroxyethyl)pyrido[2,3-d]pyrimidin-7(8H)-one] | 1.4 | 1.94 |
| CS(=O)(=O)N1CCC(Nc2ncc3ccc(=O)n([C@H]4CC[C@H](O)C4)c3n2)CC1 (single isomer, unassigned) [Example 53, (+)-8-[(1R*,3R*)-3-hydroxycyclopentyl]-2-{[1-(methylsulfonyl)piperidin-4-yl]amino}pyrido[2,3-d]pyrimidin-7(8H)-one] | 1.09 | 3.79 |
| CS(=O)(=O)N1CCC(Nc2ncc3cc(C(F)F)c(=O)n([C@@H]4CCC[C@@H](O)C4)c3n2)CC1 [Example 212, 6-(difluoromethyl)-8-[(1R,3R)-3-hydroxycyclohexyl]-2-{[1-(methylsulfonyl)piperidin-4-yl]amino}pyrido[2,3-d]pyrimidin-7(8H)-one] | 1.2 | 0.17 |
| CS(=O)(=O)N1CCC(Nc2ncc3cc(CC(F)F)c(=O)n([C@@H]4CC[C@@H](O)C4)c3n2)CC1 (single isomer, unassigned) [Example 172, (−)-6-(2,2-difluoroethyl)-8-[(1R*,3R*)-3-hydroxycyclopentyl]-2-{[1-(methylsulfonyl)piperidin-4-yl]amino}pyrido[2,3-d]pyrimidin-7(8H)-one] | 4.38 | 2.08 |
| CNS(=O)(=O)N1CCC(Nc2ncc3ccc(=O)n(C4CCCCCC4)c3n2)CC1 [Example 20, 4-[(8-cycloheptyl-7-oxo-7,8-dihydropyrido[2,3-d]pyrimidin-2-yl)amino]-N-methylpiperidine-1-sulfonamide] | 0.42 | 1.95 |
| C[C@@H]1[C@H](O)CC[C@H]1n1c(=O)c(C(F)F)cc2cnc(NC3CCN(S(C)(=O)=O)CC3)nc21 (single isomer, unassigned) [Example 204, (−)-6-(difluoromethyl)-8-[(1R*,2S*,3R*)-3-hydroxy-2-methylcyclopentyl]-2-{[1-(methylsulfonyl)piperidin-4-yl]amino}pyrido[2,3-d]pyrimidin-7(8H)-one] | 0.51 | 0.18 |
